These results are taken from publication PMC4996284 (CNS neuroscience & therapeutics, 2016).

For assay [1], the target named is T1, rat ASIC1a (Rattus norvegicus, UniProt P55926).
T1 sequence (P55926 1-526): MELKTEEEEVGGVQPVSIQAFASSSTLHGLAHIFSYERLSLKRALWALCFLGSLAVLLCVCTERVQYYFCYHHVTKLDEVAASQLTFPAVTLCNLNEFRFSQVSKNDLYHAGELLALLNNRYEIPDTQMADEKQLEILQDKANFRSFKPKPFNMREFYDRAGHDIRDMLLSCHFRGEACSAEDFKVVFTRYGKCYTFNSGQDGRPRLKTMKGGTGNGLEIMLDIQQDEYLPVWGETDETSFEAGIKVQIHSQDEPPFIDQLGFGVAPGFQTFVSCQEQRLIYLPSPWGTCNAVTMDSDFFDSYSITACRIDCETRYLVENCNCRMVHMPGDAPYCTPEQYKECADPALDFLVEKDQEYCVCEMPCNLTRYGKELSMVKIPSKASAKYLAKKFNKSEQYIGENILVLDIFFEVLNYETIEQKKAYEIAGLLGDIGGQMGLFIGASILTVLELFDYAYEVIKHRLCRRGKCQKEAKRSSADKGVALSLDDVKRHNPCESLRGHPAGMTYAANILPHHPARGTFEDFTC
As to conditions: potency relative to amiloride.

Assay [2] deals with T1, rat ASIC1a. Description: cell-based.
The subject of assay [3] is MCAO-induced focal ischemia. Briefly: Transient focal ischemia by middle cerebral artery occlusion. It is filed as in vivo, mouse. The settings on record: mice, 1 µl of 500 µM i.c.v. 3h after MCAO (~12 µM); ACSF 49%.

Broadly, the IC50 is the concentration that gives 50% inhibition. Lower therefore signals greater potency in that assay.

Turning to `NC(=NCc1ccccc1)NC(=O)c1nc(Cl)c(N)nc1N` [Benzamil], the “increased inhibitory activity on ASIC1a currents in comparison with amiloride” value in assay [1] was ~ 4 fold. The same compound displayed an IC50 in assay [2] of 3.5 ± 0.18 µM. Also, the infarct volume in assay [3] is recorded as 33.75%.
With `NC(=Nc1ccccc1)NC(=O)c1nc(Cl)c(N)nc1N` [Phenamil], the “increased inhibitory activity on ASIC1a currents in comparison with amiloride” value in assay [1] is reported as ~ 2 fold. For the same compound, 6.95 µM corresponded to half-maximal inhibition in assay [2] (IC50).
As to `CCN(c1nc(N)c(C(=O)NC(=N)N)nc1Cl)C(C)C` [EIPA, 5-(N-ethyl-N-isopropyl)amiloride], the half-maximal inhibitory concentration (IC50) in assay [2] was determined as 20.7 ± 2.18 µM.
